Results as given in patent publication US10894807B2 (Siemens Medical Solutions USA, Inc., priority 2011, dated 2021).

Biological target: human PSMA (Homo sapiens (Human), UniProt Q04609)
Experiment: Enzymatic assay for in vitro evaluation of PSMA inhibitors (fluorescent assay of PSMA activity, NAAG substrate, OPA detection of glutamate)
Type: biochemical
Settings: for PSMA Blkg % (10 μM): compound at 10 μM
Description: Enzymatic Assay for In Vitro Evaluation of PSMA Inhibitors
The inhibitory activity of all compounds was determined using a fluorescent assay of human PSMA activity. The enzyme used in the assay was purchased from R&D Systems and stored at −80° C. The PSMA activity was assayed in a two-step process. In the first step, aliquots of enzyme (0.2 μg/mL) were incubated for 1 h at 37° C. in 50 mM HEPES, 0.1 M NaCl, pH 7.5, in the presence of 20 μM NAAG and the given inhibitor, in a volume of 250 μL, to allow for the accumulation of glutamate produced in the PSMA reaction. In the second step, the amount of accumulated glutamate was measured using the OPA reaction, and the fluorescence was read with a SpectraMax fluorescent plate reader using excitation at 330 nm and emission at 450 nm. The final Ki values for each inhibitor were calculated from the respective IC50 values using the Cheng and Prusoff equation.

Chain of human PSMA (Q04609 whole entry): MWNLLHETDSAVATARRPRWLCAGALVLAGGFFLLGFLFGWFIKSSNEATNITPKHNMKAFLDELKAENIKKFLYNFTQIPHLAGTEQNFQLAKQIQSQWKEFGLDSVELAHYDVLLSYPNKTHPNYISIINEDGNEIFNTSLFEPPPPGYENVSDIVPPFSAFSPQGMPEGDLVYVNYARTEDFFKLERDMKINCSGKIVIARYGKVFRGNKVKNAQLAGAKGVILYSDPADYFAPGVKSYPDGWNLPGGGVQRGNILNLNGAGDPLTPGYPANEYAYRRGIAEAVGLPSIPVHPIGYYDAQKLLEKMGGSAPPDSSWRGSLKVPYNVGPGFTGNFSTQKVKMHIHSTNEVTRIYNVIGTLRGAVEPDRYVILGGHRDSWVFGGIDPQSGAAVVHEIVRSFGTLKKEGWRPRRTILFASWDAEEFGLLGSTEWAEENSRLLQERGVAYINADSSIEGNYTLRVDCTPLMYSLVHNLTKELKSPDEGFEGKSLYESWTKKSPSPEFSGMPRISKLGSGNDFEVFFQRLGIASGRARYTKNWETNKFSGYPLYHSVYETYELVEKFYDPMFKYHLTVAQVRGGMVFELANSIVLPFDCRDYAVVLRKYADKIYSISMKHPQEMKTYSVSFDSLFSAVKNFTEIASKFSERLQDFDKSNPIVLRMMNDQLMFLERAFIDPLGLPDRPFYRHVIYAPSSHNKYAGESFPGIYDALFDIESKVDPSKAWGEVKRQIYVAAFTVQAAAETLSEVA

Molecule	PSMA Blkg % (10 μM)	Ki	PSMA Blkg % (1.0 μM)
2-(4-(2-(((Benzyloxy)carbonyl)amino)-3-methoxy-3-oxopropyl)-1H-1,2,3-triazol-1-yl)pentanedioic Acid [P124]	10%		
O=C(O)CC[C@H](NC(=O)N[C@@H](CCCCNC(=O)N1CCN(C(=O)c2ccc(-n3cc(CCCF)nn3)cc2)CC1)C(=O)O)C(=O)O (stereo in doubt) [P249, (S)-2-(3-((S)-1-Carboxy-5-(4-(4-(4-(3-fluoropropyl)-1H-1,2,3-triazol-1-yl)benzoyl)-piperizine-1-carboxamido)pentyl)ureido)pentanedioic Acid]		9.4 nM	
O=C(O)CC[C@H](NC(=O)N[C@@H](CCCCNc1cc(OCC(COc2ccc([N+](=O)[O-])c(NCCCC[C@H](NC(=O)N[C@@H](CCC(=O)O)C(=O)O)C(=O)O)c2)n2cc(CCCF)nn2)ccc1[N+](=O)[O-])C(=O)O)C(=O)O (stereo in doubt) [P266, (2S)-2-(3-((1)-1-Carboxy-5-((5-(3-(3-(((S)-5-carboxy-5-(3-((S)-1,3-dicarboxypropyl)ureido)pentyl)amino)-4-nitrophenoxy)-2-(4-(3-fluoropropyl)-1H-1,2,3-triazol-1-yl)propoxy)-2-nitrophenyl)amino)pentyl)ureido)pentanedioic Acid]		0.3 nM	
O=C(O)CCC(NC(=O)N[C@@H](CCCCNc1nc(NCCN(CCNc2ccc([N+](=O)[O-])c(NCCCCC(NC(=O)N[C@@H](CCC(=O)O)C(=O)O)C(=O)O)n2)CCNc2ccc([N+](=O)[O-])c(NCCCCC(NC(=O)N[C@@H](CCC(=O)O)C(=O)O)C(=O)O)n2)ccc1[N+](=O)[O-])C(=O)O)C(=O)O (stereo in doubt) [P270, (2S,2′S,2″S)-2,2′,2″-(((((1S,1′S,1″S)-((6,6′,6″-((Nitrilotris(ethane-2,1-diyl))tris(azanediyl))tris(3-nitropyridine-6,2-diyl))tris(azanediyl))tris(1-carboxypentane-5,1-diyl))tris(azanediyl))tris(carbonyl))tris(azanediyl))tripentanedioic Acid]		0.2 nM	71%
O=C(O)CC[C@H](NC(=O)NC(Cc1ccc(NC(=O)N2CCN(C(=O)c3cc(NC(=O)Cn4cc(CCCF)nn4)cc(C(=O)N4CCN(C(=O)Nc5ccc(CC(NC(=O)N[C@@H](CCC(=O)O)C(=O)O)C(=O)O)cc5)CC4)c3)CC2)cc1)C(=O)O)C(=O)O (stereo in doubt) [P274, (2S,2′S)-2,2′-(((((1S,1′S)-(((4,4′-(5-(2-(4-(3-Fluoropropyl)-1H-1,2,3-triazol-1-yl)acetamido)isophthaloyl)bis(piperazine-1,1′-carbonyl))bis(azanediyl))bis(4,1-phenylene))bis(1-carboxyethane-2,1-diyl))bis(azanediyl))bis(carbonyl))bis(azanediyl))dipentanedioic Acid]		13.1 nM	
O=C(O)CC[C@H](NC(=O)NC(Cc1ccc(NC(=O)N2CCN(C(=O)c3cc(C(=O)N4CCN(C(=O)Nc5ccc(CC(NC(=O)N[C@@H](CCC(=O)O)C(=O)O)C(=O)O)cc5)CC4)cc(-n4cc(CCCF)nn4)c3)CC2)cc1)C(=O)O)C(=O)O (stereo in doubt) [P275, (2S,2′S)-2,2′-(((((1S,1′S)-(((4,4′-(5-(4-(3-Fluoropropyl)-1H-1,2,3-triazol-1-yl)isophthaloyl)bis(piperazine-1,1′-carbonyl))bis(azanediyl))bis(4,1-phenylene))bis(1-carboxyethane-2,1-diyl))bis(azanediyl))bis(carbonyl))bis(azanediyl))dipentanedioic Acid]		6.6 nM	
O=C(O)CCC(NC(=O)N[C@@H](CCCCNc1cc(OCC(COc2ccc([N+](=O)[O-])c(NCCCCC(NC(=O)N[C@@H](CCC(=O)O)C(=O)O)C(=O)O)c2)OCc2cn(CCF)nn2)ccc1[N+](=O)[O-])C(=O)O)C(=O)O (stereo in doubt) [P277, (2S)-2-(3-((1S)-1-Carboxy-5-((5-(3-(3-(((S)-5-carboxy-5-(3-((S)-1,3-dicarboxypropyl)ureido)pentyl)amino)-4-nitrophenoxy)-2-((1-(2-fluoroethyl)-1H-1,2,3-triazol-4-yl)methoxy)propoxy)-2-nitrophenyl)amino)pentyl)ureido)pentanedioic Acid]		0.4 nM	
O=C(O)CCC(NC(=O)NC(CCCCNC(=O)CC(CC(=O)NCCCCC(NC(=O)N[C@@H](CCC(=O)O)C(=O)O)C(=O)O)NC(=O)c1ccc(-n2cc(CCCF)nn2)cc1)C(=O)O)C(=O)O (stereo in doubt) [P278, (3S,7S,23S,27S)-15-(4-(4-(3-Fluoropropyl)-1H-1,2,3-triazol-1-yl)benzamido)-5,13,17,25-tetraoxo-4,6,12,18,24,26-hexaazanonacosane-1,3,7,23,27,29-hexacarboxylic Acid]		0.2 nM	
O=C(O)CC[C@H](NC(=O)N[C@@H](CCCCNC(=O)N1CCN(C(=O)CCC(CCC(=O)N2CCN(C(=O)NCCCC[C@H](NC(=O)N[C@@H](CCC(=O)O)C(=O)O)C(=O)O)CC2)NC(=O)c2ccc(-n3cc(CCCF)nn3)cc2)CC1)C(=O)O)C(=O)O (stereo in doubt) [P281, (2S,2′S)-2,2′-(((((1S,1′S)-((4,4′-(4-(4-(4-(3-Fluoropropyl)-1H-1,2,3-triazol-1-yl)benzamido)heptanedioyl)bis(piperazine-1,1′-carbonyl))bis(azanediyl))bis(1-carboxypentane-5,1diyl))-bis(azanediyl))-bis(carbonyl))-bis(azanediyl))-dipentanedioic Acid]		1.3 nM	
O=C(O)CCC(NC(=O)NC(CC1CCN(C(=O)CCC(CCC(=O)N2CCC(C[C@H](NC(=O)NC(CCC(=O)O)C(=O)O)C(=O)O)CC2)NC(=O)c2ccc(-n3cc(CCCF)nn3)cc2)CC1)C(=O)O)C(=O)O (stereo in doubt) [P292, (2S)-2-(3-((1S)-1-Carboxy-2-(1-(7-(4-((S)-2-carboxy-2-(3-((S)-1,3-dicarboxypropyl)-ureido)-ethyl)-piperidin-1-yl)-4-(4-(4-(3-fluoropropyl)-1H-1,2,3-triazol-1-yl)-benzamido)7-oxoheptanoyl)-piperidin-4-yl)ethyl)ureido)pentanedioic Acid]		0.7 nM	96%
O=C(O)CC[C@H](NC(=O)N[C@@H](CSCc1ccc(F)cc1)C(=O)O)C(=O)O [P001]	97%	50 nM	
O=C(O)CC[C@H](NC(=O)N[C@@H](CCCCNC(=O)c1ccc(F)nc1)C(=O)O)C(=O)O [P002, (S)-2-(3-((S)-1-Carboxy-5-(6-fluoronicotinamido)pentyl)ureido)pentanedioic Acid]	92%		
O=C(O)CC[C@H](NC(=O)N[C@@H](CCCCNC(=O)c1ccc(Cl)nc1)C(=O)O)C(=O)O [P003, (S)-2-(3-((S)-1-Carboxy-5-(6-chloronicotinamido)pentyl)ureido)pentanedioic Acid]	99%		
O=C(O)CC[C@H](NC(=O)N[C@@H](CCCCNC(=O)c1ccnc(F)c1)C(=O)O)C(=O)O [P004, (S)-2-(3-((S)-1-Carboxy-5-(2-fluoroisonicotinamido)pentyl)ureido)pentanedioic Acid]	90%	15.6 nM	
O=C(O)CC[C@H](NC(=O)N[C@@H](CCCCNC(=O)Cn1cc(CCCF)nn1)C(=O)O)C(=O)O [P005, (S)-2-(3-((S)-1-Carboxy-5-(2-(4-(3-fluoropropyl)-1H-1,2,3-triazol-1-yl)acetamido)pentyl)ureido)pentanedioic Acid]	89%	40.7 nM	
O=C(Nc1cc(C(=O)O)cc(C(=O)O)c1)N[C@@H](Cc1ccc(OCCF)cc1)C(=O)O [P006, (S)-5-(3-(1-Carboxy-2-(4-(2-fluoroethoxy)phenyl)ethyl)ureido)isophthalic Acid]	0%		
O=C(Cn1cc(CCCF)nn1)NCCCC[C@H](NC(=O)Nc1cc(C(=O)O)cc(C(=O)O)c1)C(=O)O [P007, (S)-5-(3-(1-Carboxy-5-(2-(4-(3-fluoropropyl)-1H-1,2,3-triazol-1-yl)acetamido)pentyl)-ureido)isophthalic Acid]	0%		
O=C(O)CC[C@H](NC(=O)N(CC(=O)O)[C@@H](CCCCNC(=O)OCc1ccccc1)C(=O)O)C(=O)O [P008, (9S,13S)-10-(Carboxymethyl)-3,1-dioxo-1-phenyl-2-oxa-4,10,12-triazapentadecane-9,13,15-tricarboxylic Acid]	21%		
O=C(O)CCC(CP(=O)(O)O)C(=O)O (stereo not shown) [P009]	100%		
O=C(O)CC[C@H](NC(=O)N(CCc1ccccc1)CC(=O)O)C(=O)O [P010, (S)-2-(3-(Carboxymethyl)-3-phenethylureido)pentanedioic Acid]	0%		
O=C(O)CC[C@H](NC(=O)N(CC(=O)O)NC(=O)Cc1ccccc1)C(=O)O [P011, (S)-2-(1-(Carboxymethyl)-2-(2-phenylacetyl)hydrazinecarboxamido)pentanedioic Acid]	0%		
O=C(O)CC[C@H](NC(=O)N(CC(=O)O)[C@@H](CCCCNC(=O)OCc1ccccc1)C(=O)NO)C(=O)O [P012, (S)-2-(3-((S)-6-(((Benzyloxy)carbonyl)amino)-1-(hydroxyamino)-1-oxohexan-2-yl)-3-(carboxymethyl)ureido)pentanedioic Acid]	0%		
O=C(O)CN(CC(=O)O)NC(=O)NC(CSCc1ccccc1)C(=O)O (stereo not shown) [P013, 2,2′-(2-((2-(Benzylthio)-1-carboxyethyl)carbamoyl)hydrazine-1,1-diyl)diacetic Acid]	16%		
